We go through 1 molecule from patent US20260248918A1, “COMPOSITIONS AND METHODS OF SUPPRESSING AVERSIVENESS OF PHARMACEUTICALS AND INGESTIBLE MATERIALS” (Monell Chemical Senses Center, priority 2019, published 2026).

The term IC50 denotes the midpoint of a concentration-inhibition curve. Usually Hill slope stands for a measure of the steepness of the concentration-response curve.

For one test, the system named is hTBEC cells. The test is described as follows: hTBEC bioassay: antagonism of bitter-drug stimulation of human taste bud cells. Type of test: cell-based. To be noted: for IC50: Homo sapiens; for % maximum inhibition: at 50 μM antagonist. As for the experimental part:
FIGS. 12A and 12B show concentration-response curves or relationships (CRCs) for antagonism of TAF or piperaquine stimulation of hTBEC cells with an optimal concentration of each bitter-tasting medicine in vitro. Each inhibition curve was fitted to the data so as to calculate an IC50 or the concentration that inhibits 50% of the signal. A Hill slope was calculated, along with the % maximal inhibition and the concentration of antagonist, 6-methylflavone, (indicated by the ref ST069348) required to fully block the response in the assay. These metrics were slightly different for antagonism by 6 -methylflavone of TAF versus piperaquine. FIG. 12A is a graph showing the suppression of human taste bud cells (hTBEC) cells with 6-methylflavone added to 300 micromolar TAF stimulated cells. […] FIG. 12B is a graph showing the suppression of hTBEC cells with 6-methylflavone added to 100 micromolar Piperaquine stimulated cells. IC50 is 2.0 μM for 6-methylflavone antagonism of Piperaquine stimulation.
Using a primary hTBEC platform, a high throughput screening (HTS) was conducted with more than 2,000 small molecular weight purified phytochemicals and botanical extracts. The screen identified 40 antagonists that suppressed taste cell activation by target APIs. […] TAS2R1 is responsive to piperaquine and tenofovir. (See FIG. 4)

The next test concerns the target T1, TAS2R1 (Homo sapiens, UniProt Q9NYW7).
T1 sequence (Q9NYW7 1-299): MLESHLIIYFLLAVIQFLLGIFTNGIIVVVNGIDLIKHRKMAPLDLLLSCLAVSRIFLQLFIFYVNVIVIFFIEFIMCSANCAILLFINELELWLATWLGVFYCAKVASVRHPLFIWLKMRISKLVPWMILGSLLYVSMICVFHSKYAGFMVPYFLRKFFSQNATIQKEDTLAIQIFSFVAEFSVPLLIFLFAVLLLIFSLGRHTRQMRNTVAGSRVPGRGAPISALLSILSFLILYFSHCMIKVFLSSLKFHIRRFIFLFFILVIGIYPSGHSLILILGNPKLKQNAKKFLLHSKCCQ
Nature of the test: Blocking of TAS2R1 response to the APIs. It counts as cell-based. To be noted: data not shown.

Test [1] relates to Benzodiazepine receptor (gamma-aminobutyric acid receptor subunit). The following applies: rat cortical membranes; cited from earlier work.
Test [2] concerns Gamma-aminobutyric acid A receptor alpha. The following applies: in vitro; cited from earlier work.
In the next test the test system is androgen receptor. To be noted: human MDA-kb2 cells; cited from earlier work.
The target of the next test is T2, glucocorticoid receptor (Homo sapiens, UniProt P04150).
T2 construct: glucocorticoid receptor in human MDA-kb2 cells; endogenous in cells; host or cells: MDA-kb2
T2 sequence (P04150 1-777): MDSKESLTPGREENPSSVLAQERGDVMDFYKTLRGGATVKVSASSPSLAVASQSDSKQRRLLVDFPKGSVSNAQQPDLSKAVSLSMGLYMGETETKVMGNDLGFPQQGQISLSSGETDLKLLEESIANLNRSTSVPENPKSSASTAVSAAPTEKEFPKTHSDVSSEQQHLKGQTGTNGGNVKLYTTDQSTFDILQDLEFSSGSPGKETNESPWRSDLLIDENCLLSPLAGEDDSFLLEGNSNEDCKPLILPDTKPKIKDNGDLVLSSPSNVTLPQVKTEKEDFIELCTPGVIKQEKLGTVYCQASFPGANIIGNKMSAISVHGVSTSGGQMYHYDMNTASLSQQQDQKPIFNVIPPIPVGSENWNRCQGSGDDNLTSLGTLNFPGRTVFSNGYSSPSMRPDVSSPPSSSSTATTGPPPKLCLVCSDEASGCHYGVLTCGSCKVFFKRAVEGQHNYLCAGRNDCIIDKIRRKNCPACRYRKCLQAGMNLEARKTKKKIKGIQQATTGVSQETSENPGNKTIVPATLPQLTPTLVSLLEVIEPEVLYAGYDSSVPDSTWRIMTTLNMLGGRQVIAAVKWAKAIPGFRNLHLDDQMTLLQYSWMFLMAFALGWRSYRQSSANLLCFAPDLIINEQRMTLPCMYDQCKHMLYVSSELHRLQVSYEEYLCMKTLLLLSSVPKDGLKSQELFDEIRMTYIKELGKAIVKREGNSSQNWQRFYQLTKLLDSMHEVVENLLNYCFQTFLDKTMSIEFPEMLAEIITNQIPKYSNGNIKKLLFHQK
The following applies: human MDA-kb2 cells; cited from earlier work.

A further test addresses T3, TAS2R39 (Homo sapiens, UniProt P59534).
T3 sequence (P59534 1-338): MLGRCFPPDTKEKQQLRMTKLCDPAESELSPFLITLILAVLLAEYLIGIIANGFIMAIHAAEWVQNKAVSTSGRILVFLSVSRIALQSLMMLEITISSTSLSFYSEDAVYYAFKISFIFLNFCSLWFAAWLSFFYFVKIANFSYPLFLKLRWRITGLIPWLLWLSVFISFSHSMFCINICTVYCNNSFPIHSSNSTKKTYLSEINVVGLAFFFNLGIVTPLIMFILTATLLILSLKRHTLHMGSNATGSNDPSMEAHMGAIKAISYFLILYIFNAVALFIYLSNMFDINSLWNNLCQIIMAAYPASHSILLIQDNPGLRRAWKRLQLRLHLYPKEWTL
Nature of the test: Blocking of TAS2R39 activity (HEK/TAS2R39) stimulated by Piperaquine or Tenofovir. It counts as cell-based. Details: expressed in transfected cells; host or cells: HEK. To be noted: 0.1 mM blocker. How it is done: FIG. 5A is a bar graph showing that the blocker 6-methylflavone (indicated by the arrow number 2) blocks the activity of taste receptor TAS2R39 to Piperaquine. Other blockers are unidentified compounds identified by the numbers following the concentrations under the X axis. Five candidates from the HTS screen blocked the activity of TAS2R39 to Piperaquine.
FIG. 5B is a graph plotting the activity of taste receptor HEK/TAS2R39 in the presence of 0.5 mM Piperaquine (bold black line); the combination of 0.5 mM Piperaquine and 0.1 mM of 6-methylflavone (light gray line), and a control with 0.1 mM of the blocker 6-methylflavone (dotted line).
Other blockers are identified by the numbers following the concentrations under the X axis.
FIG. 7B is a graph plotting the activity of taste receptor TAS2R39 in the presence of 1 mM Tenofovir (bold black line); the combination of 1 mM Tenovir and 0.1 mM of 6-methylflavone (light gray line), and a control with 0.1 mM of the blocker 6-methylflavone (dotted line).

“Also recorded” adds a separate entry of the source. Like-named read-outs stand apart in the source and are kept apart here.

Take `Cc1ccc2oc(-c3ccccc3)cc(=O)c2c1` [6-methylflavone]: the half-maximal inhibitory concentration (IC50) with hTBEC cells (hTBEC cells stimulated with 100 micromolar Piperaquine, FIG. 12B, read-out: IC50 for antagonism of Piperaquine stimulation) worked out at 2 µM; in the test with hTBEC cells (hTBEC cells stimulated with 300 micromolar TAF, FIG. 12A, read-out: IC50 for antagonism of TAF stimulation) it was 7.7 µM. The “% maximum inhibition” value in the test on hTBEC cells (100 micromolar Piperaquine stimulated hTBEC cells, FIG. 12B) is reported as more than 95%; in the test with hTBEC cells (300 micromolar TAF stimulated hTBEC cells, FIG. 12A), more than 95%. Besides, the Hill slope in the test with hTBEC cells (hTBEC cells stimulated with 100 micromolar Piperaquine, FIG. 12B) is 1.992; in the test with hTBEC cells (hTBEC cells stimulated with 300 micromolar TAF, FIG. 12A) it was 2.18. In addition, in the test on hTBEC cells (stimulated by TAF, racemic praziquantel and piperaquine), the “Blocking the stimulation of hTBEC cells by bitter tasting drugs” value was “quite potent and effective”. For the same molecule, at TAS2R1 (FIG. 5A legend (Piperaquine)), the “Inhibition of TAS2R1” value is given as “did not inhibit”. Also, the “Inhibition of the response of TAS2R1 to TAF” value at TAS2R1 (FIG. 7B legend) is “did not inhibit”. Also, in test [1], the “In vitro affinity against Benzodiazepine receptor binding” value is “active”. Besides, the “Inhibition of [3H]-Ro-15-1788 binding” value in test [2] was “has the ability to inhibit”. Also, in the test on androgen receptor, the “Agonist activity at androgen receptor, stimulation of luciferase activity” value is reported as “agonist activity”. In addition, at glucocorticoid receptor, the “Antagonist activity at glucocorticoid receptor” value is on record as “antagonist activity”. Besides, the “Inhibition of TAS2R39 activity to Piperaquine” value on TAS2R39 (0.5 mM Piperaquine, FIG. 5A/5B) is reported as “powerful antagonist; also recorded: strong inhibition”. Also, on TAS2R39 (1 mM Tenofovir, FIG. 7A/7B), the “Inhibition of TAS2R39 activity in response to Tenofovir (TAF)” value is given as “powerful antagonist; also recorded: completely inhibited”.
